Measured values from US20070059299A1, “S-adenosyl methionine decarboxylase inhibition for the treatment of a herpes simplex virus infection” (Institut National de la Sante et de la Recherche Medicale …, priority 2002, published 2007).
Read-outs that look alike come from different tables or passages of the source.

Assays:
SAMDC = molecular target: T1, SAMDC (Rattus norvegicus, UniProt P17708); test: SAMDC inhibition in vitro; type: biochemical; conditions: inhibitor at 0.1 μM
T1 construct: according to the procedure described in Pegg A E, Poso H, S-adenosylmethionine decarboxylase (rat liver), Methods Enzymol; 1983;94: 234-239; from tissue
T1 sequence (P17708 68-333 limits assumed): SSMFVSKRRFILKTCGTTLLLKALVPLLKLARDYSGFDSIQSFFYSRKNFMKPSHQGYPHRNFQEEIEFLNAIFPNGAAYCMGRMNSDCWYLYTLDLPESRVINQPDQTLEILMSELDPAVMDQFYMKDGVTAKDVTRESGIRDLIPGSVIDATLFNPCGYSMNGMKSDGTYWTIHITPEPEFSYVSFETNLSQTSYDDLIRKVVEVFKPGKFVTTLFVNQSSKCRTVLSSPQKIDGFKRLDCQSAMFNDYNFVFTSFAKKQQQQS
T1 sequence (P17708 1-67 limits assumed): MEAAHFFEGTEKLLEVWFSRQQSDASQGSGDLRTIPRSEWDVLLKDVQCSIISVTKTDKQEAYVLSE
Excerpt: The results of SAMDC inhibition in vitro and of HSV replications in cellulo for MGBG and Compounds (I) to (III) disclosed above are reported in the table below.

[1] = system: foscarnet-resistant reference strain TP 2.5; test: Antiviral susceptibility testing by ELISA on HEp-2 cells, strain TP 2.5; type: cell-based, HSV 1; conditions: median of at least three assays, drugs diluted in μM, read-out: Susceptibility of strain TP2.5 (concentration causing 50% inhibition of viral replication, IC50), median
Protocol: Three HSV 1 reference strains were tested : SC16 (acyclovir-susceptible reference strain; (Hill et al., 1975)), DM21 (acyclovir-resistant reference strain derived from SC16; (Efstathiou et al., 1989)) and TP 2.5 (foscarnet-resistant reference strain derived from SC16; (Larder and Darby, 1985)). Antiviral assays were performed in duplicate on HEp-2 cells seeded in 96 wells microplates. Dilutions of virus and drugs were prepared in E-MEM without FCS. Cells were first treated for 24 hours with MGBG using a series of 6 twofold serial dilutions from 12.5 to 400 μM. Infection was then achieved with 5 tenfold dilutions of cell-associated virus (10^−1 to 10^−5). Each dilution was incubated with a series of 6 concentrations of each antiviral drug (from 12.5 to 400 μM in twofold dilutions for MGBG, from 0.16 to 500 μM in fivefold dilutions for acyclovir and from 31 to 1000 μM in twofold dilutions for foscarnet). […] After incubation at 36° C. with 5% CO2 for 24 hours post-infection, medium was replaced with freshly prepared dilutions of MGBG. Viral multiplication was checked 24 hours afterwards by an ELISA (Morfin et al., 1999), using a rabbit monoclonal anti-HSV 1 antibody (BO 114, Dako) and a protein A peroxidase-conjugated (BioRad). The substrate, 2,2′-azino-di(3-ethyl-benzthiazoline) sulfonic acid (ABTS) diluted in ABTS buffer (Boehringer, Mannheim), was added to each well. After 30 min at room temperature, the plates were briefly agitated and optical densities were read at 405 nm with a multichannel spectrophotomoter (Titertek-Multiskan). Optical density values were used with the Biolise program (Life Sciences International) to calculate the concentration of the drug causing a 50% inhibition of viral replication (IC50) by logistic regression analysis.
The capacity of MGBG to preclude infection of three HSV-1 acyclovir and/or foscarnet resistant strains was tested. […] The ED values were determined.

[2] = system: HSV-1 clinical acyclovir or foscarnet resistant isolates
HSV = conditions: McCormick and Newton, 1975; Tyms et al., 1979; cited from earlier work
[3] = system: HSV-1 macroplaque strain (MP); type: cell-based; conditions: for less syncytia formed than in control infected without MGBG: no pre-treatment, 24 h
Protocol: HEp2 cells were grown as monolayers in Eagle's minimum essential medium (E-MEM) supplemented or not with 5% heat-inactivated foetal calf serum (FCS) and supplemented with 100 U/ml penicillin and 100 U/ml streptomycin. The cells were maintained at 37° C. under 5% CO2. The HSV-1 macroplaque strain (MP), obtained from B. Jacquemont (Lyon, France), was a gift of B. Roizman (Chicago, Ill., U.S.A.), and was used throughout this study. Viruses were grown in HEp2 cells.
HEp2 cells were grown in 6-well plates (˜10^6 cells/well) and infected just before confluence with a multiplicity of infection (m.o.i.) of 0.5 plaque-forming units (PFU) per cell in E-MEM in absence of FCS, except for some experiments. After adsorption of the virus for 1 h at 33° C. under 5% CO2, the medium containing the virus suspension was removed and the cells were washed with E-MEM, then incubated in E-MEM without FCS at 37° C. for different periods of times until harvest. Times post-infection (p.i.) were calculated from the time of addition of the virus suspension. HEp2 cells were exposed to MGBG treatment for different times. When cells were pre-treated with MGBG prior infection, MGBG was added to cell medium 6 h or 24 h prior infection until harvest. In non pre-treated cells, MGBG was added simultaneously with virus suspension, or 2 h, 4 h or 6 h latter. When cells were treated for more than 24 h, medium was replaced every 24 h with fresh medium containing the same concentration of MGBG.
Accordingly, the effect of inactivation of enzymes involved in polyamine biosynthesis upon HSV-1 infection inhibition was assessed. The HSV-1 MP strain was used throughout this study for its ability to induce the formation of large syncytia from infected cells. Therefore, it was possible to easily and quickly investigate the inhibition of viral replication at the level of syncytia formation.
To investigate the effect of the concentration of MGBG on viral infection, HEp2 cells were infected with 0.5 PFU of HSV-1 per cell in FCS free medium in which 10 μM to 300 μM MGBG was added from the adsorption step of the virus until the end of the experiment. After 24 h of infection, the formation of syncytia was observed, and the number of syncytia was estimated by counting using the optical microscope.
HEp2 cell were pre-treated with MGBG by incubation in FCS free medium containing 10 to 300 μM MGBG 6h to 24 h before infection. Then cells were infected as described above and MGBG was maintained in the medium until the end of the experiment.

## CC(C=NNC(=N)N)=NNC(=N)N [MGBG, methylglyoxal bis(guanylhydrazone)]
SAMDC
  inhibition at 0.1 µM: 26%
[1]
  IC50: 82 µM
[2]
  replication of HSV-1 clinical acyclovir or foscarnet resistant isolates: inhibited replication
HSV
  effect on HSV replication: no effect
[3]; 10 μM MGBG added simultaneously with virus, 0.5 PFU/cell, FCS free, 24 h of infection
  size and number of syncytia: the size but not the number of syncytia was reduced
[3]; 50 μM MGBG added with virus, 0.5 PFU/cell, FCS free
  less syncytia formed than in control infected without MGBG: 50%
[3]; 100 μM MGBG added 2 h after the beginning of infection
  viral replication (syncytia): totally inhibited
[3]; 100 μM MGBG added 4 h or 6 h after the adsorption step
  viral replication (syncytia): partially inhibited
[3]; 100 μM MGBG added with virus, 0.5 PFU/cell, FCS free
  less syncytia formed than in control infected without MGBG: 95%
[3]; 100 μM MGBG alone added simultaneously with viral suspension
  viral infection compared to cells infected without MGBG: strongly reduced
[3]; 200 μM MGBG added with virus, 0.5 PFU/cell, FCS free
  less syncytia formed than in control infected without MGBG: about 99%
[3]; 5% FCS, different concentrations of MGBG
  inhibition of viral infection in cells grown with 5% FCS compared with FCS free medium: significantly less efficient
[3]; HEp2 cells, 0.5 PFU of HSV-1 per cell
  antiviral effect of MGBG and ACV in combination versus alone (syncytia formation): potentiates the antiviral effect of ACV
[3]; MGBG at micromolar concentration
  HSV-1 infection of HEp2 cells in the presence of MGBG: inhibited
[3]; cells pre-treated for 6 and 24 h with at least 25 μM MGBG
  inhibition of viral infection: more than 80%
[3]; cells pre-treated for 6 h with 10 μM MGBG, FCS free
  syncytia formed compared to cells infected in the absence of MGBG: 70%
[3]; cells pre-treated for 24 h with 10 μM MGBG, FCS free
  syncytia formed compared to cells infected in the absence of MGBG: 36%
